# Measurements from patent publication US9872875B2, “Component and method for treating viral disease” (Institut Pasteur of Shanghai, Chinese Academy of Sciences, priority 2012, dated 2018).
# Where two headings read alike, the source gives them in different places.
# Key:
# EV71 [1] = experiment: Effects of other antagonists and agonists on EV71 (Table 9); format: cell-based, Enterovirus 71; parameters: key: “NO” indicates there is negative
# P2X1 receptor = target: T1, P2X1 receptor (Homo sapiens, UniProt P51575); details: cited from earlier work
# T1 sequence (P51575 1-399): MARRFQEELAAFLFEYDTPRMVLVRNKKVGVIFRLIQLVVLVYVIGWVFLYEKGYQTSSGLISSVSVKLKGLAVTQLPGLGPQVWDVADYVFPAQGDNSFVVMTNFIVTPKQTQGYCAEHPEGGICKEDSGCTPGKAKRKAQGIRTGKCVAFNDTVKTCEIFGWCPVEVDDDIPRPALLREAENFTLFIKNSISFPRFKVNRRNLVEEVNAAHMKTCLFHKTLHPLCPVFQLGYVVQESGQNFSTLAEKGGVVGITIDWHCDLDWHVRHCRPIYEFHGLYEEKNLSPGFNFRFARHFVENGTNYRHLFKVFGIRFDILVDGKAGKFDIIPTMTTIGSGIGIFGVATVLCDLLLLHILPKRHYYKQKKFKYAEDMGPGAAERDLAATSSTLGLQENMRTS
# P2X3 receptor = target: T2, P2X3 receptor (Homo sapiens, UniProt P56373); details: cited from earlier work
# T2 sequence (P56373 1-397): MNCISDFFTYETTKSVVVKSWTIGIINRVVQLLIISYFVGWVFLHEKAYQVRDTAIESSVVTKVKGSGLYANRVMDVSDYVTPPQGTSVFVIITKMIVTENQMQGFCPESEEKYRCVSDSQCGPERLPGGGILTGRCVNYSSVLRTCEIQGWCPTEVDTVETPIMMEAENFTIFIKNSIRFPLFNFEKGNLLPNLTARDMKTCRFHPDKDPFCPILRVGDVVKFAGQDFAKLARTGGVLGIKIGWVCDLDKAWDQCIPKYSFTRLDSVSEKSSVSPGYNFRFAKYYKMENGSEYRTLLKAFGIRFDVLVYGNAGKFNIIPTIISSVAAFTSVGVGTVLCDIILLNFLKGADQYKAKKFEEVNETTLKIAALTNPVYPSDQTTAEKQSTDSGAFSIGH
# P2Y1 = P2Y1 (Homo sapiens, UniProt P47900); details: Table 9, antagonists; cell names P2Y1; cited from earlier work
# P2X2/3 = P2X2/3 (Homo sapiens, UniProt P56373+Q9UBL9); details: Table 9, antagonists; cited from earlier work
# EV71 FY-23 = experiment: EV71 infection of adult rhesus monkeys: blood viral load and body temperature; format: in vivo, rhesus monkey (Macaca); details: 50 mg/kg suramin i.v.
# From the text: 10 adult rhesus monkeys, which were detected negative for EV71 antibody (rhesus monkey (Macaca), Source: Institute of Medical Biology, Chinese Academy of Medical Sciences, Experimental animal use license number: SYXK (Yunnan) 2010-0009, Certification unit: Yunnan Provincial Science and Technology Agency), were randomly divided into two groups, namely: five in control group (aged about 4 years old, weighing about 5.3 kg, injected with physiological saline), 5 in treatment group (aged about 4.6 years old, weighs about 5.44 kg, injected with 50 mg/kg suramin). Multiple intravenous injections of suramin (50 mg/kg) were used. […] Specific experimental procedure is as follows:
# Then, drug was administered intravenously at a dose (50 mg/kg suramin or physiological saline).
# Intravenous viral challenge was performed with 4.5 lgCCID50 EV71 FY-23.
# Whole blood RNA extraction: obtained 0.2 ml blood, added 0.8 ml TRNzol-A^+, after mixing, placed the well at room temperature for 10 min; added 0.2 ml chloroform, tightened cover lid, vigorously shaking for 15 sec, placed at room temperature for 5 min, centrifuged at 12500 rpm, 4° C., 20 min, 0.4 ml of aqueous phase was transferred to another fresh tube, equal volume of isopropanol was added, mixed, placed at room temperature for 30 min; centrifuged at 12500 rpm, 4° C., 20 min, supernatant was discarded, 1 ml of 75% ethanol was added to wash precipitates, centrifuged at 12500 rpm, 4° C., 30 min. Supernatant discarded, placed at room temperature for 30 min, RNA dried, 20 μl RNase-free ddH2O added, and RNA fully dissolved. Viral load was determined by measurement method as follows:
# 1) Standard dilutions: obtaining standards (performed according to TaKaRa MiniBEST Viral RNA/DNA extraction Kit Ver 3.0 instructions), 10 μl standards were obtained, 10-fold serial dilutions 10^6, 10^5, 10^4, 10^3, 10^2, 10^1, 10^0.
# 2) Primer sequences (Taqman probe method):
# 3) Preparing RT-PCR reaction solution (reaction solutions were prepared on ice):
# 4) Performing Real Time One Step RT-PCR.
# EV71 [2] = experiment: Inhibition of EV71 replication in RD cells at 0.1, 1, 10 and 100 μM (CPE, crystal violet); format: cell-based, Enterovirus 71
# Method: Inhibitory effect of each P2X receptor antagonists and agonists on EV71 replication was measured at 0.1, 1, 10, and 100 μM. Specific procedures refer to “1” of Example 1. after infection, however, cells need to be incubated for 3˜4 days, stained with crystal violet, and observed under optical microscope to determine whether or not CPE (cytopathic effect) was present. In addition, the effect of compounds at each concentration on cytotoxicity to RD cells was determined. After culturing RD cells in various concentrations of compounds for 3˜4 days, stained with crystal violet, and observed under optical microscope to observe whether or not cell layer was damaged. Compounds capable of protecting cells from infection without damage of healthy cell layer can inhibit EV71 replication in RD cells.
# P2X2 receptor = target: T3, P2X2 receptor (Homo sapiens, UniProt Q9UBL9); details: Table 8, antagonists; cited from earlier work
# T3 sequence (Q9UBL9 1-471): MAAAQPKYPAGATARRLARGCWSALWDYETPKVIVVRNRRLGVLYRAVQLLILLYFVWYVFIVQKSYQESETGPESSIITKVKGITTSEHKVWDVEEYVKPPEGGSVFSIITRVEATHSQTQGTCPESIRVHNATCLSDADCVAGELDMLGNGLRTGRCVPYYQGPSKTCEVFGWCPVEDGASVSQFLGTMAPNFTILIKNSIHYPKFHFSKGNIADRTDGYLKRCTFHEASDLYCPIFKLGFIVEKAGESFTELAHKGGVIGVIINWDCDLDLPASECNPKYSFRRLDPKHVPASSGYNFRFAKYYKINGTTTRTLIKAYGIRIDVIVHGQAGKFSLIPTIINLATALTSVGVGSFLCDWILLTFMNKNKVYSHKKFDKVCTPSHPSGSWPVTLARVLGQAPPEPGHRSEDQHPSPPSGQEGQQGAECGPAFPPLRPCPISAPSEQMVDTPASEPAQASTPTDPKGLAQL
# P2X5 receptor = P2X5 receptor (Homo sapiens, UniProt Q93086); details: Table 8, antagonists; cited from earlier work
# P2X7 receptor = target: T4, P2X7 receptor (Homo sapiens, UniProt Q99572); details: Table 8, antagonists; cited from earlier work
# T4 sequence (Q99572 1-595): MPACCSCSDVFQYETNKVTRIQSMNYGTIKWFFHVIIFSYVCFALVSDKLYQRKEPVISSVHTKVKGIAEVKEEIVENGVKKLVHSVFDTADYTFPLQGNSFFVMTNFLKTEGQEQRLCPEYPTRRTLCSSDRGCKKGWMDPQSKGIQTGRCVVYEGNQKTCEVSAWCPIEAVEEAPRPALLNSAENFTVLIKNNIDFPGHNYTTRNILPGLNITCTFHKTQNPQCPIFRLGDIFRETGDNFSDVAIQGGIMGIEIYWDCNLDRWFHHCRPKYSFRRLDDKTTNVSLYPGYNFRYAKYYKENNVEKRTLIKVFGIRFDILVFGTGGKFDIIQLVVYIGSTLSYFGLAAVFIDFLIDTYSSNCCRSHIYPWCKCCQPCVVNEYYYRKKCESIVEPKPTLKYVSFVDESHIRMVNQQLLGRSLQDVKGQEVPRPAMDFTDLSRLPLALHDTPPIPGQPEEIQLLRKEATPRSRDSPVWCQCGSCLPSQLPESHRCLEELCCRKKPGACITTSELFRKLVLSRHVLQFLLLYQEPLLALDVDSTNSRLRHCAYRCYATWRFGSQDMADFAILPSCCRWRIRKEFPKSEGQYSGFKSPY
# Chain of P2Y1 (P47900 whole entry, species assumed): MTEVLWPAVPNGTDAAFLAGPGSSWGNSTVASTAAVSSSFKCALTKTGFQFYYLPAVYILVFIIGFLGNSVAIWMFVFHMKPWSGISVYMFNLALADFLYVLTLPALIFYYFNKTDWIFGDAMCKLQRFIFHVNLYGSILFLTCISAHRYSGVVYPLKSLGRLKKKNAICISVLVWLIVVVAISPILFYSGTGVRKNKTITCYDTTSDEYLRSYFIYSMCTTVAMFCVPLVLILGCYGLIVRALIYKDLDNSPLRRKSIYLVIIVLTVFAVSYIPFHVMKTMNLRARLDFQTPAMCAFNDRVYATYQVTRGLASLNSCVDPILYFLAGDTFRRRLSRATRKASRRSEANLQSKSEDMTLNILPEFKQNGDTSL
# Chain of P2X5 receptor (Q93086 whole entry): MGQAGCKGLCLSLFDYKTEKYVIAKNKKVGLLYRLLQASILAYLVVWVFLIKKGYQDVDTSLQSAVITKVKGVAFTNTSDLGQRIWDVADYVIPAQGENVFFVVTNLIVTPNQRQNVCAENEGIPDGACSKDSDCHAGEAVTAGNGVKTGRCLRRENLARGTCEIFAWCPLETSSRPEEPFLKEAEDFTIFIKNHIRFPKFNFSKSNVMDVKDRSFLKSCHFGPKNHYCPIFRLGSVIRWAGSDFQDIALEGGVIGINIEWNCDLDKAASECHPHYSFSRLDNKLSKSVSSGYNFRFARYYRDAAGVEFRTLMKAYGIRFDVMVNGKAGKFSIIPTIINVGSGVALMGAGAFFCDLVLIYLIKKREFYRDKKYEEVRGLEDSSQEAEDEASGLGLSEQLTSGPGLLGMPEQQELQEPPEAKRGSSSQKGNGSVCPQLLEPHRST
Compound,EV71 Log10 reduction (EV71 [1]),"P2X receptors 1 (P2X1 receptor; Table 9, antagonists)","P2X receptors 3 (P2X3 receptor; Table 9, antagonists)",P2Y (P2Y1),Heteromultimer (P2X2/3),viral load compared with control group (EV71 FY-23; rhesus monkeys),"blood viral load of drug treatment group (average) (EV71 FY-23; 4th, 7th and 13th days after viral challenge, control peak 1-1.5×10^3 copies/ml)",body temperature after infection (EV71 FY-23; control group showed a rise 1 day after infection),inhibition of EV71 replication (statement in words) (EV71 [2]),"Inhibition of EV71 replication (EV71 [2]; Table 8, antagonists)","P2X receptors 1 (P2X1 receptor; Table 8, antagonists)",P2X receptors 2 (P2X2 receptor),"P2X receptors 3 (P2X3 receptor; Table 8, antagonists)",P2X receptors 5 (P2X5 receptor),P2X receptors 7 (P2X7 receptor)
CNc1ncnc2c1ncn2[C@H]1C[C@H](OP(=O)(O)O)[C@@H](COP(=O)(O)O)O1 [MRS 2179],NO,✓ (✓ activating concentration >300 nM),✓ (✓ activating concentration >300 nM),✓ ✓ P2Y1 (✓ ✓ activating concentration 10 nM-300 nM),,,,,,,,,,,
COc1cc(Cc2cnc(N)nc2N)c(C(C)C)cc1OC [RO-3],NO,,✓ ✓ (✓ ✓ activating concentration 10 nM-300 nM),,✓ P2X2/3 (✓ activating concentration >300 nM),,,,,,,,,,
"Cc1ccc(C(=O)Nc2ccc(S(=O)(=O)O)c3cc(S(=O)(=O)O)cc(S(=O)(=O)O)c23)cc1NC(=O)c1cccc(NC(=O)Nc2cccc(C(=O)Nc3cc(C(=O)Nc4ccc(S(=O)(=O)O)c5cc(S(=O)(=O)O)cc(S(=O)(=O)O)c45)ccc3C)c2)c1 [suramin, Suramin]",,,,,,significantly lower,1.5×10^1 copies/ml,essentially maintained body temperatures within normal range,,,,,,,
trinitrophenol-ATP [TNP-ATP],NO,✓ ✓ ✓ (✓ ✓ ✓ activating concentration <10 nM),✓ ✓ ✓ (✓ ✓ ✓ activating concentration <10 nM),,✓ ✓ ✓ (✓ ✓ ✓ activating concentration <10 nM),,,,can also inhibit EV71 replication,+ (+: inhibitory concentration >300 nM),+++ (+++: inhibitory concentration <10 nM),+ (+: inhibitory concentration >300 nM),+++ (+++: inhibitory concentration <10 nM),+ (+: inhibitory concentration >300 nM),+ (+: inhibitory concentration >300 nM)
